Assay results taken from PMC5681660, “Reduced hepatitis B and D viral entry using clinically applied drugs as novel inhibitors of the bile acid transporter NTCP” (Scientific Reports, 2017).
Structures can show the parent of a compound that is named as a salt. Where two headings read alike, the source gives them in different places.

How the values were obtained:
[1] = molecular target: T1, human NTCP (Homo sapiens, UniProt Q14973); experiment: Screening taurocholate uptake assay (96-well, [14C]taurocholate, 10 µM drug)
T1 sequence (Q14973 1-349): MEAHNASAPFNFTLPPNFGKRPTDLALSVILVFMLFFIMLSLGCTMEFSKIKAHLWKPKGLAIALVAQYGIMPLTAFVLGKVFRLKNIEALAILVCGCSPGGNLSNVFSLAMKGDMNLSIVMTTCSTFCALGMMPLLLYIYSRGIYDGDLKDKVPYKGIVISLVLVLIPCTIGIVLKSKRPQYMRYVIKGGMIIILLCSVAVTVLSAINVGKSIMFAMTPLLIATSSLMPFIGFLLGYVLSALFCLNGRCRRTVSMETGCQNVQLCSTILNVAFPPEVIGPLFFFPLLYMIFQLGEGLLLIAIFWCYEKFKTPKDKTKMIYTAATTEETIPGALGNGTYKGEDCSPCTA

[2] = molecular target: T1, human NTCP; experiment: Screening fluorescent competitive Myrcludex B-FITC binding assay (96-well, 10 µM drug)
[3] = Prestwick library screen, taurocholate uptake, 10 µM drug
[4] = ranking score beside the functional and binding assay B-scores of the screen
[5] = Prestwick library screen, Myrcludex B-FITC binding, 10 µM drug
[6] = combined ranking from functional and binding screening assays
[7] = screen, 10 µM drug, taurocholate uptake
[8] = screen, 10 µM drug, Myrcludex B-FITC binding
[9] = Prestwick library screen, 10 µM drug, B-score of taurocholate uptake
[10] = combined ranking from functional and binding assay B-scores
[11] = Prestwick library screen, 10 µM drug, B-score of Myrcludex B-FITC binding

SMILES	B-score functional assay [1, 3]	Ranking score [1, 4]	B-score binding assay [2, 5]	Ranking score [1, 6]	B-score functional assay [1, 7]	B-score binding assay [2, 8]	other results
Nc1ccn([C@@H]2O[C@H](CO)[C@@H](O)C2(F)F)c(=O)n1 [Gemcitabine]	0.015	717.496	0.165				
Cc1ccc(C)c(OCCCC(C)(C)C(=O)O)c1 [Gemfibrozil]				289.348	0.85	-2.286	
C#C[C@]1(O)CC[C@H]2[C@@H]3CCC4=CC(=O)CCC4=C3C=C[C@@]21CC [Gestrinone]				385.482	-0.358	-0.596	
Cl.O=C(OCC(O)CO)c1ccccc1Nc1ccnc2cc(Cl)ccc12 (stereo not drawn) [Glafenine hydrochloride]							B-score functional assay [1, 9]: 0.341; Ranking score [1, 10]: 1037.91; B-score binding assay [2, 11]: 3.077
CCC1=C(C)CN(C(=O)NCCc2ccc(S(=O)(=O)NC(=O)N[C@H]3CC[C@H](C)CC3)cc2)C1=O [Glimepiride]				350.338	-1.888	0.412	
Cc1cnc(C(=O)NCCc2ccc(S(=O)(=O)NC(=O)NC3CCCCC3)cc2)cn1 [Glipizide]				412.592	-1.639	0.997	
COc1ccc2c(c1)C(=O)N(CCc1ccc(S(=O)(=O)NC(=O)NC3CCCCC3)cc1)C(=O)C2(C)C [Gliquidone]				336.107	-2.316	1.024	
CCC1(c2ccc(N)cc2)CCC(=O)NC1=O (stereo not drawn) [Glutethimide, para-amino]	0.113	663.514	-0.055				
C[N+]1(C)CCC(OC(=O)C(O)(c2ccccc2)C2CCCC2)C1 (stereo not drawn) [Glycopyrrolate]	0.403	820.625	0.143				
CN1C2CCCC1CC(NC(=O)c1nn(C)c3ccccc13)C2 (stereo not drawn) [Granisetron]	0.526	726.756	-0.067				
COc1ccccc1O [Guaiacol]	-0.032	782.911	0.94				
N=C(N)NCC1COC2(CCCCC2)O1.N=C(N)NCC1COC2(CCCCC2)O1.O=S(=O)(O)O (stereo not drawn) [Guanadrel sulfate]				326.821	-2.033	0.27	
CCCCN(CCCC)CCC(O)c1cc2c(Cl)cc(Cl)cc2c2cc(C(F)(F)F)ccc12 (stereo not drawn) [Halofantrine hydrochloride]				393.07	0.058	-1.143	
Oc1c(Cl)cc(Cl)c(Cl)c1Cc1c(O)c(Cl)cc(Cl)c1Cl [Hexachlorophene]							B-score functional assay [1]: -8.47; Ranking score [1]: 82.4136; B-score binding assay [2]: 1.48
C[N+](C)(C)CCCCCC[N+](C)(C)C.O.O.[Br-].[Br-] [Hexamethonium dibromide dihydrate]	-0.02	696.207	0.191				
CC(CNC1CCCCC1)OC(=O)c1ccccc1 (stereo not drawn) [Hexylcaine hydrochloride]				435.325	0.196	-1.021	
CN1CCCN(C(c2ccccc2)c2ccc(Cl)cc2)CC1.Cl.Cl (stereo not drawn) [Homochlorcyclizine dihydrochloride]							B-score functional assay [1, 9]: 0.737; Ranking score [1, 10]: 1053.65; B-score binding assay [2, 11]: 1.404
CC1CC(OC(=O)c2ccccc2O)CC(C)(C)C1 (stereo not drawn) [Homosalate]	0.284	811.615	0.177				
NS(=O)(=O)c1cc2c(cc1C(F)(F)F)NCNS2(=O)=O [Hydroflumethiazide]							B-score functional assay [1, 9]: 0.664; Ranking score [1, 10]: 856.507; B-score binding assay [2, 11]: 0.137
CCN(CCO)CCCC(C)Nc1ccnc2cc(Cl)ccc12 (stereo not drawn) [Hydroxychloroquine sulfate]	0.168	775.907	0.139				
OCCOCCN1CCN(C(c2ccccc2)c2ccc(Cl)cc2)CC1 (stereo not drawn) [Hydroxyzine dihydrochloride]				394.018	1.371	-1.7	
Cc1cc(=O)oc2cc(O)ccc12 [Hymecromone]				448.437	-0.811	0.036	
